The target in the experiment is PSMA (Homo sapiens (Human), UniProt Q04609). In words: NAALADase assay: PSMA inhibitory activity, fluorescence-based Amplex Red Glutamic Acid assay, lysates of LNCaP cell extracts. It is filed as biochemical. The protocol: Briefly, lysates of LNCaP cell extracts (25 μL) were incubated with the inhibitor (12.5 μL) in the presence of 4 μM N-acetylaspartylglutamate (NAAG) (12.5 μL) for 120 min. The amount of the glutamate released by NAAG hydrolysis was measured by incubating with a working solution (50 μL) of the Amplex Red Glutamic Acid Kit for 60 min. […] Assays were performed in triplicate. Data analysis was performed using GraphPad Prism version 4.00 for Windows (GraphPad Software, San Diego, Calif.).

[1] abbreviates: Table 3, Cheng-Prusoff conversion, read-out: Ki.

SMILES strings stand for the structures. Read-outs that look alike come from different tables or passages of the source.

The results in this text go back to patent US10736974B2, “Scaffolds and multifunctional intermediates for imaging PSMA and cancer therapy” (THE JOHNS HOPKINS UNIVERSITY, priority 2014, dated 2020).

Chain of PSMA (Q04609 whole entry): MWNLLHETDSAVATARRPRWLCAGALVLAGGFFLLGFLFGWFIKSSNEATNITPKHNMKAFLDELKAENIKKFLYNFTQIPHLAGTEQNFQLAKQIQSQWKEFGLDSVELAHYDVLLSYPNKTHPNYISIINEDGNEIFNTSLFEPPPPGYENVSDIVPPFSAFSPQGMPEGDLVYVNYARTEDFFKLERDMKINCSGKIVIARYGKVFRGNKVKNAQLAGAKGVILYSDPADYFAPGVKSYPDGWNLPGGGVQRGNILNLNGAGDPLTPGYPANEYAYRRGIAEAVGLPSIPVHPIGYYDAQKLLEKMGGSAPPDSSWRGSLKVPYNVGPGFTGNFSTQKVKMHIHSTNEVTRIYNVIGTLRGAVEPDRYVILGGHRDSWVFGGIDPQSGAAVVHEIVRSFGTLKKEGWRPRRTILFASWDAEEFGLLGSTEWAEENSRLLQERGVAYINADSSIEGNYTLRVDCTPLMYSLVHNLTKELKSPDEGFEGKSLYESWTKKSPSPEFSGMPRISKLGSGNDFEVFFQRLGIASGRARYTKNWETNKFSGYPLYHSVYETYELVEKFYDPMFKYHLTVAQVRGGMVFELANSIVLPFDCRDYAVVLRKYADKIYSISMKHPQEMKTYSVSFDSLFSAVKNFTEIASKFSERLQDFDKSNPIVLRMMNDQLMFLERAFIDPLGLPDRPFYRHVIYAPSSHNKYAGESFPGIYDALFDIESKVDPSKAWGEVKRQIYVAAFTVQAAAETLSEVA

The term Ki denotes a dissociation constant, usually derived from enzyme kinetics or from competition with a known ligand. Take `O=C(O)CC[C@H](NC(=O)N[C@@H](CSCc1ccc(I)cc1)C(=O)O)C(=O)O` [DCIBC, reference compound]: the Ki (Table 4, read-out: Ki) worked out at 0.03 nM.
As a reminder, the IC50 is the midpoint of a concentration-inhibition curve. Turning to `O=C(O)CC[C@H](NC(=O)O[C@@H](CCNC(=O)c1ccc(F)cc1)C(=O)O)C(=O)O` [XY-16], for the setting “Table 3”, the IC50 worked out at 4500 nM. The Ki under setting [1] amounted to 900 nM.
On the same counts, the results for `O=C(O)CC[C@H](NC(=O)O[C@H](CCNC(=O)c1ccc(F)cc1)C(=O)O)C(=O)O` [XY-17] are 4900 nM and 980 nM.
On to `O=C(O)CC[C@H](NC(=O)O[C@@H](CCCCNC(=O)c1ccc(F)cc1)C(=O)O)C(=O)O` [XY-20, (S)-2-(((((S)-1-carboxy-5-(4-fluorobenzamido)pentyl)oxy)carbonyl)amino)pentanedioic acid], for which the “reduction in binding affinity compared to 9 (YC-I-26)” value was “more than 150 fold”. The molecule also had a half-maximal inhibitory concentration (IC50) (Table 3) of 210 nM. Under setting [1], the inhibition constant (Ki) is 42 nM.
For the setting “Table 3”, `O=C(O)CC[C@H](NC(=O)O[C@@H](CCCCNC(=O)c1ccc2ccccc2c1)C(=O)O)C(=O)O` [XY-21] gave a half-maximal inhibitory concentration (IC50) of 60 nM. For the same molecule, the Ki under setting [1] is 12 nM.
The corresponding values for `COc1ccc2cc(C(=O)NCCCC[C@H](OC(=O)N[C@@H](CCC(=O)O)C(=O)O)C(=O)O)ccc2c1` [XY-22] are 104 nM and 20 nM.
In the case of `COc1ccc(-c2ccc(C(=O)NCCCC[C@H](OC(=O)N[C@@H](CCC(=O)O)C(=O)O)C(=O)O)cc2)cc1` [XY-23], where the note is “Table 3”, inhibition was half-maximal at 30 nM (IC50). Further, under setting [1], the Ki is 6 nM.
The corresponding values for `O=C(O)CC[C@H](NC(=O)O[C@@H](CCCCNC(=O)c1ccc(-c2ccc(OCCF)cc2)cc1)C(=O)O)C(=O)O` [XY-24] are 120 nM and 22 nM.
With `O=C(O)CC[C@H](NC(=O)O[C@@H](CCCCNC(=O)c1ccc(I)cc1)C(=O)O)C(=O)O` [XY-26], the IC50 (Table 3) is 4.3 nM. For the same molecule, the inhibitory constant (Ki) (read-out: Ki, PSMA inhibition) came to 0.9 nM.
`COc1ccc(C(=O)NCCCC[C@H](OC(=O)N[C@@H](CCC(=O)O)C(=O)O)C(=O)O)cc1` [XY-27] gave a concentration for half-maximal inhibition (IC50) (Table 3) of 100 nM. The Ki under setting [1] was determined as 21 nM.
On to `CSc1ccc(C(=O)NCCCC[C@H](OC(=O)N[C@@H](CCC(=O)O)C(=O)O)C(=O)O)cc1` [XY-28], for which half-maximal inhibition (Table 3) (IC50) required 24 nM. Besides, the inhibitory constant (Ki) under setting [1] stood at 4.8 nM.
The corresponding values for `CC(=O)Nc1ccc(C(=O)NCCCC[C@H](OC(=O)N[C@@H](CCC(=O)O)C(=O)O)C(=O)O)cc1` [XY-29] are 660 nM and 130 nM.
Under “Table 3”, `CNC(=O)c1ccc(C(=O)NCCCC[C@H](OC(=O)N[C@@H](CCC(=O)O)C(=O)O)C(=O)O)cc1` [XY-30] displayed an IC50 of 1300 nM. In addition, under setting [1], the inhibitory constant (Ki) worked out at 270 nM.
On the same counts, the results for `O=C(O)CC[C@H](NC(=O)NC[C@H](NC(=O)c1ccc(F)cc1)C(=O)O)C(=O)O` [XY-34] are 43000 nM and 9.7 nM.
On the same counts, the results for `O=C(O)CC[C@H](NC(=O)NC[C@H](NC(=O)CCCNC(=O)c1ccc(F)cc1)C(=O)O)C(=O)O` [XY-35] are 8000 nM and 1600 nM.
On the same counts, the results for `O=C(O)CC[C@H](NC(=O)O[C@@H](CCCCNC(=O)c1ccc(SCCF)cc1)C(=O)O)C(=O)O` [XY-38] are 41 nM and 8.3 nM.
In the case of `O=C(O)CC[C@H](NC(=O)O[C@@H](CCCCNC(=O)c1ccc(SCc2ccc(F)cc2)cc1)C(=O)O)C(=O)O` [XY-39], half-maximal inhibition (Table 3) (IC50) was put at 46 nM. Under setting [1], the Ki was found to be 9.3 nM.
The corresponding values for `CSc1ccc(C(=O)NCCCC(=O)N[C@H](CNC(=O)N[C@@H](CCC(=O)O)C(=O)O)C(=O)O)cc1` [XY-40] are 1.3 nM and 0.26 nM.
For `O=C(O)CC[C@H](NC(=O)O[C@@H](CCCCNC(=O)c1ccc(-c2ccccc2)cc1F)C(=O)O)C(=O)O` [XY-42], the IC50 (Table 3) came out at 86 nM. Besides, under setting [1], the inhibitory constant (Ki) stood at 13 nM.
On the same counts, the results for `O=C(O)CC[C@H](NC(=O)O[C@@H](CCCCNC(=O)c1ccc(I)cc1F)C(=O)O)C(=O)O` [XY-43] are 1.6 nM and 0.32 nM.
